Reference: patent publication US9632088B2, “Methods and compositions for gamma-secretase assay” (MEMORIAL SLOAN-KETTERING CANCER CENTER, priority 2010, dated 2017)

Tests used:
[1] = molecular target: T1, γ-secretase (Homo sapiens, UniProt P49768); assay: Cell-based Notch cleavage assay, immunostaining with SM320, HEK293 cells transfected with N1-ΔE; settings: 1 μM inhibitor, 48 hours
T1 construct: endogenous in cells; host or cells: HEK293 cells transiently transfected with myc-tagged N1-ΔE (substrate only)
Protocol: HEK293 cells were seeded in a 4-well chamber slide (Lab-tek) and transfected with N1-ΔE as in the preceding paragraph, using Fugene 6 transfection reagents (Roche Applied Science, Mannheim, Germany). Transfected cells were then treated with either DMSO at a 1% final concentration or 1 μM Compound E.
After 48 hours of treatment, the cells were washed with PBS, fixed with cold methanol and permeabilized with 0.25% Tween-20. SM320 and anti-myc antibodies were added to detect NICD and full length N1-ΔE, respectively. Alexa Fluor-488 (Invitrogen, San Diego, Calif.) conjugated anti-rabbit and Alexa Fluor-594 (Invitrogen) conjugated anti-mouse antibodies were used as corresponding secondary antibodies. 4′,6-diamidino-2-phenylindole (DAPI) was used to stain cell nuclei. Finally, fluorescent images were captured with a Leica TCS Sp2 AOBS laser scanning confocal microscope (Memorial Sloan-Kettering Cancer Center Molecular Cytology Core Facility). Alternatively, REK 293 cells overexpressing N1-ΔE were treated with DMSO or Compound E, and were then collected through centrifugation and embedded in paraffin. The cell pellets were sliced and mounted on glass slides. […]
SM320 was further characterized using immunostaining analysis. […] Using confocal microscopy, it was shown that N1-ΔE protein, as detected by anti-myc antibody, is expressed in cells transfected with the construct (FIG. 6B, panel 2). […]

[2] = molecular target: T2, wild-type PS1 γ-secretase (Homo sapiens, UniProt P49768); assay: In vitro N1-Sb1 γ-secretase assay, membrane of N2a cells expressing wild-type PS1; type: biochemical, murine; settings: wild-type PS1; read-out: IC50 of γ-secretase inhibition (N1-Sb1 cleavage)
T2 construct: total membrane
Protocol: (§1) HeLa membrane fraction was isolated from HeLa-S3 cells (National Cell Culture Center). The cell pellet was resuspended in Buffer A (50 mM MES, 150 mM KCl, 5 mM CaCl2, 5 mM MgCl2) and lysed by passage through a French Press. N2a cells (murine neuroblastoma cells) over-expressing wild-type PS1, or mutants M146L or E280A, were obtained from Dr. Sangram Sisodia (University of Chicago, Chicago, Ill.). These cells were maintained in 50% Dulbecco's modified Eagle's medium high glucose, 50% Opti-Mem Reduced Serum Media, and 10% fetal calf serum. Cultured cells were pelleted by centrifugation and resuspended in hypotonic buffer (40 mM Tris, pH 7.4, 10 mM NaCl, 1 mM EDTA, and 0.5 mM DTT) for 20 minutes before being lysed with a dounce homogenizer. Nuclear debris from the HeLa and N2a cells were pelleted at 3000 rpm for 30 minutes. The resulting supernatants were ultracentrifuged at 100,000×g for 1 hour. The pellet that contained total cell membrane was resuspended in Buffer A. Mouse brains overexpressing knock-in wild type or M146V PS1 (gift from Dr. Hui Zheng, Amylin Pharmaceuticals, San Diego, Calif.) were homogenized with dounce homogenizer. The cell lysate was centrifuged at 3000 rpm for 30 minutes. The supernatants were ultracentrifuged at 100,000×g for 1 hour. Protein concentration was determined with the DC Protein Assay Kit according to the manufacturer's instructions (Bio-Rad, Hercules, Calif.).
(§2) An in vitro γ-secretase assay using a novel recombinant APP-derived substrate (termed “Sb4”) is disclosed in co-pending application U.S. Ser. No. 12/776,141. In the present assay based on a Notch-derived substrate, N1-Sb1 was incubated with the cell membrane fraction, prepared as described above, in the presence of 0.25% CHAPSO and 1×PIPES buffer (50 mM PIPES, pH 7.0, 150 mM KCl, 5 mM CaCl2, 5 mM MgCl2. The reaction was incubated at 37° C. for 2 hours. The Perkin Elmer AlphaScreen™ detection system was employed to assay for Notch cleavage. AlphaScreen (PerkinElmer Life and Analytical Sciences, Shelton, Conn.) is a bead based non-radioactive Amplified Luminescent Proximity Homogeneous Assay (ALPHA). When a biological interaction brings the beads together, a cascade of chemical reactions acts to produce a greatly amplified signal. Specifically, upon laser excitation, a photosensitizer in the “Donor” bead converts ambient (triplet) oxygen to the more reactive singlet state. The singlet state oxygen molecules diffuse into the solvent, and may react with a thioxene derivative in the Acceptor bead if nearby, generating chemiluminescence at 370 nm that further activates fluorophores contained in the same bead. The fluorophores subsequently emit light at 520-620 nm. In the absence of a specific biological interaction, the singlet state oxygen molecules produced by the donor bead go undetected without the close proximity of the acceptor bead. As a result no fluorescence signal at 520-620 nm is produced.
(§3) In the present system, antibody SM320, Protein A-conjugated acceptor beads, and Streptavidin-conjugated donor beads (PerkinElmer) were added to the reaction at a final concentration of 0.2 μg/ml, 2.5 μg/ml and 5 μg/ml, respectively (diagrammed in FIG. 5A). The reaction was incubated in the dark at room-temperature for 4 hours. The ALPHA signal was detected using the Envision plate reader (Perkin Elmer). The reactions were excited at 680 nm and signal was detected at 615 nm.
(§4) The effects of PS1 FAD mutations on Notch cleavage were determined using the new γ-secretase assay described in Example 2. The activities of two PS1 FAD mutations—PS1 M146L and E280A were compared against wild-type PS1 (WT), which has been previously studied (25). Total membrane was isolated from N2a cells that stably express WT, M146L, or E280A mutants. N1-Sb1 was incubated with these membranes and the resulting cN1-Sb1 was detected with SM320. […] The M146L and E280A mutants had 40% and 14% activity remaining, respectively, compared to the activity of the wild type (FIG. 7A). […]

[3] = molecular target: T3, M146L PS1 γ-secretase (Homo sapiens, UniProt P49768, M146L); assay: In vitro N1-Sb1 γ-secretase assay, membrane of N2a cells expressing M146L PS1; type: biochemical, murine; settings: M146L PS1; read-out: IC50 of γ-secretase inhibition (N1-Sb1 cleavage)
T3 construct: total membrane
Protocol: as §1, §2, §3, §4

[4] = molecular target: T4, E280A PS1 γ-secretase (Homo sapiens, UniProt P49768, E280A); assay: In vitro N1-Sb1 γ-secretase assay, membrane of N2a cells expressing E280A PS1; type: biochemical, murine; settings: E280A PS1; read-out: IC50 of γ-secretase inhibition (N1-Sb1 cleavage)
T4 construct: total membrane
Protocol: as §1, §2, §3, §4

Structure (SMILES)	detection of NICD by SM320 immunostaining [1]	IC50 [2] [pM]	IC50 [3] [pM]	IC50 [4] [pM]
CC(NC(=O)Cc1cc(F)cc(F)c1)C(=O)NC1N=C(c2ccccc2)c2ccccc2N(C)C1=O (centres unmarked) [Compound E]	not in cells treated with Compound E	780	760	710
CC(C)C[C@H](NC(=O)[C@H](Cc1ccccc1)C[C@@H](O)[C@H](Cc1ccccc1)NC(=O)OC(C)(C)C)C(=O)N[C@@H](Cc1ccccc1)C(N)=O [L458]	No spots of any color are observed	500	450	460
